One assay concerns the target T1, human EP2 receptor (Homo sapiens, UniProt P43116).
T1 construct: expressed in transfected cells
Kind of assay: Binding ability to human EP receptors ([3H]PGE2 displacement), EP2. The following applies: membranes expressing human EP2; [3H]PGE2 3 nM; Cheng-Prusoff; read-out: pKi (M) EP2 (converted). In a few lines: (§1)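 Membranes from cells stably expressing human EP2, EP3 or EP4 incubated to equilibrium with [3H]PGE2 and compound at 0.1 to 10 000 nM. Non-specific binding defined with 10 uM PGE2; bound label separated by vacuum filtration and quantified by scintillation counting.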

Another assay deals with T2, human EP4 receptor (Homo sapiens, UniProt P35408).
T2 construct: expressed in transfected cells
As to the kind of experiment: Binding ability to human EP receptors ([3H]PGE2 displacement), EP4. The following applies: membranes expressing human EP4; [3H]PGE2 1 nM; Cheng-Prusoff; read-out: pKi (M) EP4 (converted). The method in brief:
as §1

The target in the next assay is T3, human EP3 receptor (Homo sapiens, UniProt P43115).
T3 construct: expressed in transfected cells
T3 sequence (P43115 1-390): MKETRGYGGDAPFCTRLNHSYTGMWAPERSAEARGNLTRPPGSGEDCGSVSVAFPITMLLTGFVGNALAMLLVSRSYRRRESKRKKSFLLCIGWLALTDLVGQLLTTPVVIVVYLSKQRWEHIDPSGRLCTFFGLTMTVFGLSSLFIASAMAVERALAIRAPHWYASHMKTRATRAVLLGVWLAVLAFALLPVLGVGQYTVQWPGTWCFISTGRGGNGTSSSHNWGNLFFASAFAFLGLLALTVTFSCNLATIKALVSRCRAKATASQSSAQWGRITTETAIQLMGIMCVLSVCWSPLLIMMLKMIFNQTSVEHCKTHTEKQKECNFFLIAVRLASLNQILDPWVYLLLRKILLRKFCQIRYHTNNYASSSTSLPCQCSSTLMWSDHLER
As to the kind of experiment: Binding ability to human EP receptors ([3H]PGE2 displacement), EP3. The following applies: membranes expressing human EP3; [3H]PGE2 2.5 nM; Cheng-Prusoff; read-out: pKi (M) EP3 (converted). The method in brief: as §1

Assay [1] deals with T4, human EP2 prostanoid receptors (Homo sapiens, UniProt P43116).
T4 construct: expressed in transfected cells; host or cells: HEK-293
Kind of assay: Agonist activity at recombinant human EP2 prostanoid receptors (cAMP in HEK-293 clones). Type of assay: cell-based. The following applies: for EC50: HEK-293 stably transfected with human EP2, cAMP accumulation, read-out: pEC50 EP2 (converted); for activity (EP2 part): functional classification at EP2. (Changes in cAMP serve as a functional read-out for many G protein-coupled receptors.)

The target in assay [2] is T5, human EP4 prostanoid receptors (Homo sapiens, UniProt P35408).
T5 construct: expressed in transfected cells; host or cells: HEK-293
Kind of assay: Antagonist activity at EP4 prostanoid receptors (PGE2-stimulated cAMP in HEK-293 clones). It counts as cell-based. The following applies: for Kb: HEK-293 stably transfected with human EP4, 30 min pre-incubation before PGE2, Gaddum-Schild, slope of unity, read-out: pA2 EP4 (converted); for activity (EP4 part): functional classification at EP4, second line of the activity cell. How it is done: Culture media was Minimal essential media (MEM), supplemented with 10% foetal bovine serum, 100 U/ml penicillin, […] streptomycin, 2.5 μg/ml fungizone, 2mM glutamine. Cells were cultured to confluency (3-4 days) prior to use. Culture media was removed, and confluent cells washed three times in MEM. […] Cells were then stimulated by the addition of 25 μl of PGE2 or agonists prepared in assay buffer. In antagonist studies, cells were pre-incubated with compounds for 30 minutes prior to PGE2-mediated stimulation Plates were incubated for 15 min at 37° C., before termination of the reaction by the addition of 25 μl 1M HCl. The plate was then frozen at -20° C. overnight before determination of cAMP concentration. Stimulated cAMP levels were determined by radioligand displacement binding. In brief, plates were thawed rapidly in a waterbath, and the samples neutralised by the addition of 25 μl 1M NaOH. 30 μl was transferred to Millipore plates pre-coated with 0.5% Polyethylenimine (PEI). Samples were diluted by addition of 90 μl cAMP determination buffer (50 mM Tris, 5 mM EDTA, pH 7.0). […] 15 μl of 2 nM (final concentration) [^3H] cAMP, and 15 μl of 3'5'-cAMP protein kinase (8 μg/well final concentration) prepared in cAMP determination buffer containing 0.1% BSA, were added to each well. Plates were incubated on ice for 2 hours, before bound and free radiolabel were separated by vacuum filtration harvesting using the Millipore vacuum manifold, using ice cold water as the termination buffer. The sealing mat was removed from the Millipore plates, and the filters allowed to dry overnight. 50 μl Microscint 0 (Packard Bioscience) was added to each well, and the plate counted using the Micro-Beta Trilux topcount ^3H program. cAMP accumulation was determined from the standard curve, and values calculated in pmoles cAMP/well. Antagonists affinities (pA2 values) were determined assuming a slope of unity and the […]-Schild equation, where pA2=log [concentration ratio-1]-log[antagonist].

T2 sequence (P35408 whole entry): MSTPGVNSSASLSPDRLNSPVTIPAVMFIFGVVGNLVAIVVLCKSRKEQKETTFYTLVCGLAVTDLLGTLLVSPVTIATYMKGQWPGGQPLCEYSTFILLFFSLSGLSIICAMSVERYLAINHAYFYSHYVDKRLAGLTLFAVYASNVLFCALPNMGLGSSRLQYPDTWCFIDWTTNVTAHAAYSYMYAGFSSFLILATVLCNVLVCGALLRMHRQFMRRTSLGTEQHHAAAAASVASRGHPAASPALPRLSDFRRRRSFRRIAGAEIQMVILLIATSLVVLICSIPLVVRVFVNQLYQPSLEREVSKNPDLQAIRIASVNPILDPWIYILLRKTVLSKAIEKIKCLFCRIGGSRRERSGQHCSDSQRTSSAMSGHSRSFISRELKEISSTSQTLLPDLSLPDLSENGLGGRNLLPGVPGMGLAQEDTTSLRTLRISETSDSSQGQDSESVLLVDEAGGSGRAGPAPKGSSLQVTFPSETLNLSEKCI
T5 sequence (P35408 whole entry): as above
T1 sequence (P43116 whole entry): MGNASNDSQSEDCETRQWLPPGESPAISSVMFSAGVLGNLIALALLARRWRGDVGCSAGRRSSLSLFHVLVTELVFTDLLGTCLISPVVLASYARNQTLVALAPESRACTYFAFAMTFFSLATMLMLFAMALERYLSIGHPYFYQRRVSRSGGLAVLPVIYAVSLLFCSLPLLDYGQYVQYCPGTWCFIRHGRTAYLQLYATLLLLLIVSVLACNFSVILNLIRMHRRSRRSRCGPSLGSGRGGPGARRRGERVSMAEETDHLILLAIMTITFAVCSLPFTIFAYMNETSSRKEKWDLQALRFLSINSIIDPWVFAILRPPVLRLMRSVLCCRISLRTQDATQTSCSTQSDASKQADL
T4 sequence (P43116 whole entry): as above

Turning to `O=C(O)Cc1ccc(NC(=O)c2ccc(-c3ccccc3)o2)cc1` [Compound 2, {4-[(5-Phenyl-furan-2-carbonyl)-amino]-phenyl}-acetic acid], the Ki on human EP2 receptor is less than 1e-05 M; on human EP4 receptor, less than 1e-05 M; at human EP3 receptor, greater than 1e-05 M. In addition, the EC50 in assay [1] is less than 10000 nM. The “activity (EP2 part)” value in assay [1] is “EP2 agonist/”. The Kb in assay [2] is less than 10000 nM. For the same molecule, the “activity (EP4 part)” value in assay [2] is given as “EP4 antagonist”.
`O=C(O)CCc1cccc(NC(=O)c2ccc(-c3cc(Cl)cc(Cl)c3)o2)c1` [Compound 126, 3-(3-{[5-(3,5-Dichloro-phenyl)-furan-2-carbonyl]-amino}-phenyl)-propionic acid]: the Ki on human EP2 receptor was less than 1e-07 M. Also, the Ki on human EP4 receptor is less than 1e-06 M. Besides, the Ki on human EP3 receptor was greater than 1e-05 M. Moreover, in assay [1], the EC50 is less than 100 nM and the “activity (EP2 part)” value is listed as “EP2 Agonist/”. Also, in assay [2], the Kb was less than 1000 nM and the “activity (EP4 part)” value is recorded as “EP4 Antagonist”.
Regarding `O=C(O)/C=C/c1cccc(NC(=O)c2ccc(-c3ccccc3)o2)c1` [Compound 61, 3-{3-[(5-Phenyl-furan-2-carbonyl)-amino]-phenyl}-acrylic acid], at human EP2 receptor, the Ki is less than 1e-07 M. Moreover, the Ki on human EP4 receptor is less than 1e-06 M. The Ki at human EP3 receptor is greater than 1e-05 M. Also, in assay [1], the EC50 is less than 100 nM and the “activity (EP2 part)” value is on record as “EP2 agonist/”. In assay [2], the Kb was less than 1000 nM and the “activity (EP4 part)” value was “EP4 agonist”.
For the molecule `O=C(O)c1ccc(CNC(=O)c2ccc(-c3ccccc3)o2)cc1` [Compound 4, 4-{[(5-Phenyl-furan-2-carbonyl)-amino]-methyl}-benzoic acid], the Ki on human EP2 receptor is less than 1e-05 M; on human EP4 receptor, less than 1e-05 M; at human EP3 receptor, greater than 1e-05 M. In addition, in assay [1], the EC50 is less than 10000 nM. For the same molecule, the “activity (EP2 part)” value in assay [1] is reported as “EP2 agonist/”. Moreover, the Kb in assay [2] was less than 10000 nM. The “activity (EP4 part)” value in assay [2] is “EP4 antagonist”.
As for `O=C(O)COc1cccc(NC(=O)c2cccc(-c3cccc(Cl)c3)n2)c1` [Compound 138, (3-{[6-(3-Chloro-phenyl)-pyridine-2-carbonyl]-amino}-phenoxy)-acetic acid], the Ki on human EP2 receptor is less than 1e-07 M. Further, the Ki at human EP4 receptor was less than 1e-07 M. On human EP3 receptor, the Ki is greater than 1e-05 M. Further, in assay [1], the EC50 is less than 100 nM and the “activity (EP2 part)” value is given as “EP2 Agonist/”. Moreover, in assay [2], the Kb was less than 1000 nM and the “activity (EP4 part)” value was “EP4 Agonist”.
`O=C(O)COc1cccc(NC(=O)c2ccc(-c3cc(Cl)cc(Cl)c3)o2)c1` [Compound 68, (3-{[5-(3,5-Dichloro-phenyl)-furan-2-carbonyl]-amino}-phenoxy)-acetic acid]: at human EP2 receptor, the Ki is less than 1e-07 M. Moreover, the Ki at human EP4 receptor was less than 1e-06 M. Moreover, on human EP3 receptor, the Ki was greater than 1e-05 M. In assay [1], the EC50 was less than 100 nM and the “activity (EP2 part)” value is recorded as “EP2 agonist/”. In assay [2], the Kb was less than 1000 nM and the “activity (EP4 part)” value is recorded as “EP4 antagonist”.
In the case of `O=C(O)CCc1cccc(NC(=O)c2ccc(-c3cccc(Cl)c3)o2)c1` [Compound 125, 3-(3-{[5-(3-Chloro-phenyl)-furan-2-carbonyl]-amino}-phenyl)-propionic acid], on human EP2 receptor, the Ki was less than 1e-07 M. The Ki on human EP4 receptor is less than 1e-05 M. The Ki at human EP3 receptor was greater than 1e-05 M. In assay [1], the EC50 is less than 100 nM and the “activity (EP2 part)” value is given as “EP2 Agonist/”. Further, in assay [2], the Kb is less than 10000 nM and the “activity (EP4 part)” value is reported as “EP4 Antagonist”.
As to `O=C(O)Cc1cccc(NC(=O)c2cccc(-c3cccc(Cl)c3)n2)c1` [Compound 129, (3-{[6-(3-Chloro-phenyl)-pyridine-2-carbonyl]-amino}-phenyl)-acetic acid], the Ki at human EP2 receptor is less than 1e-07 M. At human EP4 receptor, the Ki was less than 1e-06 M. On human EP3 receptor, the Ki was greater than 1e-05 M. For the same molecule, in assay [1], the EC50 is less than 100 nM and the “activity (EP2 part)” value is reported as “EP2 Agonist/”. In assay [2], the Kb was less than 1000 nM and the “activity (EP4 part)” value is recorded as “EP4 Antagonist”.
For `O=C(O)Cc1cccc(NC(=O)c2cccc(-c3cc(Cl)cc(Cl)c3)n2)c1` [Compound 130, (3-{[6-(3,5-Dichloro-phenyl)-pyridine-2-carbonyl]-amino}-phenyl)-acetic acid], the Ki at human EP2 receptor was less than 1e-07 M. In addition, the Ki at human EP4 receptor is less than 1e-06 M. On human EP3 receptor, the Ki was greater than 1e-05 M. In assay [1], the EC50 was less than 100 nM and the “activity (EP2 part)” value was “EP2 Agonist/”. For the same molecule, in assay [2], the Kb is less than 1000 nM and the “activity (EP4 part)” value was “EP4 Antagonist”.
Take `O=C(O)/C=C/c1cccc(NC(=O)c2cc(-c3cc(Cl)cc(Cl)c3)ccc2F)c1` [Compound 144, 3-{3-[(3′,5′-Dichloro-4-fluoro-biphenyl-3-carbonyl)-amino]-phenyl}-acrylic acid]: the Ki at human EP2 receptor is less than 1e-07 M; on human EP4 receptor, less than 1e-06 M; at human EP3 receptor, greater than 1e-05 M. For the same molecule, the EC50 in assay [1] was less than 100 nM. Moreover, the “activity (EP2 part)” value in assay [1] is “EP2 Agonist”. For the same molecule, the Kb in assay [2] was less than 1000 nM.
Take `O=C(O)/C=C/c1cccc(NC(=O)c2cccc(-c3ccccc3)n2)c1` [Compound 178, 3-{3-[(6-Phenyl-pyridine-2-carbonyl)-amino]-phenyl}-acrylic acid]: the Ki was less than 1e-07 M at human EP2 receptor, less than 1e-07 M at human EP4 receptor and greater than 1e-05 M on human EP3 receptor. Besides, in assay [1], the EC50 was less than 100 nM. Further, the “activity (EP2 part)” value in assay [1] is reported as “EP2 Agonist/”. Also, in assay [2], the Kb is less than 1000 nM. Also, the “activity (EP4 part)” value in assay [2] is recorded as “EP4 Agonist”.
Turning to `O=C(O)/C=C/c1cccc(NC(=O)c2ccc(-c3cccc(Cl)c3)o2)c1` [Compound 69, 3-(3-{[5-(3-Chloro-phenyl)-furan-2-carbonyl]-amino}-phenyl)-acrylic acid], the figures for the Ki on human EP2 receptor, at human EP4 receptor and on human EP3 receptor were less than 1e-07 M, less than 1e-06 M and greater than 1e-05 M, respectively. Further, in assay [1], the “activity (EP2 part)” value is given as “EP2 agonist/”. Further, the “activity (EP4 part)” value in assay [2] is “EP4 antagonist”.
Taken in the same sequence, the figures for `O=C(O)/C=C/c1cccc(NC(=O)c2ccc(-c3cc(Cl)cc(Cl)c3)o2)c1` [Compound 70, 3-(3-{[5-(3,5-Dichloro-phenyl)-furan-2-carbonyl]-amino}-phenyl)-acrylic acid] were less than 1e-07 M, less than 1e-06 M, greater than 1e-05 M, “EP2 agonist/” and “EP4 antagonist”.
Turning to `O=C(O)COc1cccc(NC(=O)c2ccc(-c3cccc(Cl)c3)o2)c1` [Compound 66, (3-{[5-(3-Chloro-phenyl)-furan-2-carbonyl]-amino}-phenoxy)-acetic acid], the Ki at human EP2 receptor was less than 1e-07 M; on human EP4 receptor it was less than 1e-06 M; at human EP3 receptor, greater than 1e-05 M. In assay [1], the EC50 was less than 100 nM. Also, the “activity (EP2 part)” value in assay [1] is given as “EP2 agonist/”. In assay [2], the Kb is less than 1000 nM. Moreover, the “activity (EP4 part)” value in assay [2] is given as “EP4 agonist”.
Turning to `O=C(O)Cc1cccc(NC(=O)c2ccc(-c3cc(Cl)cc(Cl)c3)o2)c1` [Compound 26, (3-{[5-(3,5-Dichloro-phenyl)-furan-2-carbonyl]-amino}-phenyl)-acetic acid], the Ki at human EP2 receptor was less than 1e-07 M. For the same molecule, at human EP4 receptor, the Ki is less than 1e-07 M. For the same molecule, the Ki at human EP3 receptor was greater than 1e-05 M. Moreover, in assay [1], the EC50 is less than 100 nM and the “activity (EP2 part)” value was “EP2 agonist/”. In assay [2], the Kb was less than 1000 nM and the “activity (EP4 part)” value is reported as “EP4 antagonist”.

(Values after patent publication US7326732B2, “EP2 receptor agonists” (Pharmagene Laboratories Limited, priority 2004, dated 2008).)
